Measurements as given in patent US8354372B2 (priority 2006, dated 2013).
Bridge positions count the residues as written; N and C are the ends. Peptide text beside a SMILES is read from it.

Assays:
[1] = in vitro; settings: human, plasma
[2] = target: endoproteinase Glu-C (Endo Glu-C) (Staphylococcus aureus, UniProt P0C1U8); settings: pH 8
[3] = tested on: bovine adrenal chromaffin cells; type: cell-based

endoproteinase Glu-C (Endo Glu-C), sequence (P0C1U8 69-336 limits assumed): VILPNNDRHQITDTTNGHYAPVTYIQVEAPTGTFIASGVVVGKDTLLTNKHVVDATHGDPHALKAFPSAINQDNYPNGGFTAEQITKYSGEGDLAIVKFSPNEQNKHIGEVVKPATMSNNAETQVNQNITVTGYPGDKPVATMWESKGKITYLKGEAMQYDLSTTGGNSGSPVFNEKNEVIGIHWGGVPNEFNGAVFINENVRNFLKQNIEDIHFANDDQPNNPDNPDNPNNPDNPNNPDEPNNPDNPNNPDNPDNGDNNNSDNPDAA

Structure (SMILES)	stability in human plasma relative to MII	remaining at 24 h [1]	intact peptide remaining on incubation with Endo-GluC [2]	inhibition of nicotine-evoked catecholamine release, activity relative to linear MII [3]
CC(C)C[C@@H]1NC(=O)[C@H](CC(N)=O)NC(=O)[C@H](CO)NC(=O)[C@H](Cc2c[nH]cn2)NC(=O)[C@H](CCC(=O)O)NC(=O)[C@H](CC(C)C)NC(=O)[C@H](Cc2c[nH]cn2)NC(=O)[C@@H]2CSSC[C@@H]3NC(=O)CNC(=O)CNC(=O)CNC(=O)[C@H](C)NC(=O)[C@H](C)NC(=O)CNC(=O)CNC(=O)[C@H](CSSC[C@H](NC3=O)C(=O)N[C@@H](CO)C(=O)N[C@@H](CC(N)=O)C(=O)N3CCC[C@H]3C(=O)N[C@@H](C(C)C)C(=O)N2)NC1=O [cMII-6] (cyclo(AAGGGCCSNPVCHLEHSNLCGG); disulfide 6-12, 7-20)	dramatically greater than MII	~90%	remain entirely intact	comparable to linear MII
CC(C)C[C@@H]1NC(=O)[C@H](CC(N)=O)NC(=O)[C@H](CO)NC(=O)[C@H](Cc2c[nH]cn2)NC(=O)[C@H](CCC(=O)O)NC(=O)[C@H](CC(C)C)NC(=O)[C@H](Cc2c[nH]cn2)NC(=O)[C@@H]2CSSC[C@@H]3NC(=O)CNC(=O)CNC(=O)[C@H](C)NC(=O)[C@H](C)NC(=O)CNC(=O)[C@H](C)NC(=O)CNC(=O)CNC(=O)[C@H](CSSC[C@H](NC3=O)C(=O)N[C@@H](CO)C(=O)N[C@@H](CC(N)=O)C(=O)N3CCC[C@H]3C(=O)N[C@@H](C(C)C)C(=O)N2)NC1=O [cMII-7] (cyclo(AAGGCCSNPVCHLEHSNLCGGAG); disulfide 5-11, 6-19)	dramatically greater than MII	~90%	remain entirely intact	comparable to linear MII
